This note sets out measurements from patent US5124347A, “3-5-ditertiarybutylphenyl-4-hydroxymethylidene derivatives of 1,3-dihydro-2H-indole-2-ones as antiinflammatory agents” (Warner-Lambert Co., priority 1991, dated 1992).

In one assay the target is T1, 5-lipoxygenase (Rattus norvegicus, UniProt P12527).
T1 construct: host or cells: RBL-1 (rat basophilic leukemia)
T1 sequence (P12527 1-673): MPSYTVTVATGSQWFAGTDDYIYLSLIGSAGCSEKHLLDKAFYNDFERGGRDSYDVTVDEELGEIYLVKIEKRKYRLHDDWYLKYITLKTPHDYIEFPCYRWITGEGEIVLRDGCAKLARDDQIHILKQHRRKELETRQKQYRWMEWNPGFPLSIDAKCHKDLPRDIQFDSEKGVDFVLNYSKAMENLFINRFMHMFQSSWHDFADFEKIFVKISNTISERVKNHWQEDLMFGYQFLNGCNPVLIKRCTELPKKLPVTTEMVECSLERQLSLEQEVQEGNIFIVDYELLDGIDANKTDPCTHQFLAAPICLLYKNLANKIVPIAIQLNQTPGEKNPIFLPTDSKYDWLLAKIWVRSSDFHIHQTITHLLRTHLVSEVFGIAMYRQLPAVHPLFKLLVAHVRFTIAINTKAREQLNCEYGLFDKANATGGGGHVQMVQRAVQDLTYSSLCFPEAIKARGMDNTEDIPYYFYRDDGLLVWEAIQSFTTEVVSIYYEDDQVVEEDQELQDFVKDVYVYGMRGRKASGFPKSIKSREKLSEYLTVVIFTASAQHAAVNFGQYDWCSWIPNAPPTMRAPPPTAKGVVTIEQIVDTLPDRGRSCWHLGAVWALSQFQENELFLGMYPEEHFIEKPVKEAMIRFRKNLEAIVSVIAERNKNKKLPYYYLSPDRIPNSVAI
The assay is described as follows: ARBL whole cell 5-lipoxygenase assay (RBL-1 cells, inhibition of LTB4 formation). The class given is cell-based. As to conditions: calcium ionophore A23187 (5 μM). As to the method: (§1) ARBL/ARBC WHOLE CELL 5-LIPOXYGENASE AND CYCLOOXYGENASE ASSAYS
(§2) The rat basophilic leukemia cell line (RBL-1) was obtained from the American Type Culture Collection (Rockville, Md.).
(§3) Radioimmunoassay (RIA) kits of LTB4 and PGF2α were obtained from Amersham (Arlington Heights, Ill.) and Seragen (Boston, Mass.), respectively.
(§4) All tissue culture media were obtinaed from GIBCO (Grand Island, N.Y.).
(§5) RBL-1 cells are grown in suspension culture in Eagle's minimum essential medium supplemented with 12% fetal bovine serum at 37° C. in an incubator supplied with air-5% carbon dioxide. Cells are harvested by centrifugation. They are washed with cold phosphate-buffered saline, pH 7.4 (PBS; NaCl, 7.1 g; Na2 HPO4, 1.15 g; KH2 PO4, 0.2 g; and KCl, 0.2 g/L). Cells are finally suspended in PBS containing 1.0 mM calcium at a density of 2×10^6 cells/mL. Cells are incubated […] test agent (in DMSO) (1% DMSO is without effect on arachidonic acid metabolism) for 10 minutes at room temperature. Calcium ionophore A23187 (5 μM) is added and cells are incubated for 7 minutes at 37° C. The reaction is stopped by chilling the tubes on ice for 10 minutes. Cells are separated by centrifugation and the supernatant is stored at -20° C. Aliquots (100 μL) are anlyzed for LTB4 and PGF2α using radioimmunoassay kits as provided by the supplier.
(§6) Table 1 contains biochemical data for compounds of formula I obtained from this whole cell assay as amount of inhibition at 10 μM or IC50 s which are calculated as the concentration of a test compound in micromoles (μM) causing 50% inhibition of LTB4 or PGF2α formation.

Another assay deals with T2, cyclooxygenase (Rattus norvegicus, UniProt Q63921).
T2 construct: host or cells: RBL-1 (rat basophilic leukemia)
T2 sequence (Q63921 27-602): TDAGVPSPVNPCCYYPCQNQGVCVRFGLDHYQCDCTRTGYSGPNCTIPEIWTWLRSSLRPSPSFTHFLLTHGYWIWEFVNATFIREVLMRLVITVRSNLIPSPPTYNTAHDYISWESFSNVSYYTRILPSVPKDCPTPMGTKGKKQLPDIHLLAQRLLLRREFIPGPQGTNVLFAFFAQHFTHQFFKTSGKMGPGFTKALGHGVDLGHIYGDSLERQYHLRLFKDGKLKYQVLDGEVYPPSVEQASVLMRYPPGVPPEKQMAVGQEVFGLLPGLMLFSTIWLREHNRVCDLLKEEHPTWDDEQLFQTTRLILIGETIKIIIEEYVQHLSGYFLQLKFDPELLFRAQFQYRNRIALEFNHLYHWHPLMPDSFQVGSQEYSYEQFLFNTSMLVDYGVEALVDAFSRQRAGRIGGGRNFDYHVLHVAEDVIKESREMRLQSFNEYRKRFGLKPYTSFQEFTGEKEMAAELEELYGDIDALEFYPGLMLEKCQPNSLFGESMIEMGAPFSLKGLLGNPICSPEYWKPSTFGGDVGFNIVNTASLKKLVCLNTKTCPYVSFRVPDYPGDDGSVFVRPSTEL
As to the kind of experiment: ARBC whole cell cyclooxygenase assay (RBL-1 cells, inhibition of PGF2α formation). Format: cell-based. As to conditions: calcium ionophore A23187 (5 μM). The method, then:
as §1, §2, §3, §4, §5, §6

Assay [1] relates to Carrageenan-Induced Rat Foot Paw Edema. The assay is described as follows: Carrageenan-Induced Rat Foot Paw Edema-2 (CFE-2) Assay. Format: in vivo. As to conditions: at 10 m/k, dosed one hour before carrageenan, edema at five hours. The method, then:
Carrageenan-Induced Rat Foot Paw Edema-2 (CFE-2) Assay: Protocol
Carrageenan solution (1% w/v) is prepared by dissolving 100 mg carrageenan (Marine Colloidal Div., Springfield N.J.) in 10 ml of sterile saline (0.9%) solution (travenol). The solution is vortexed for 30 to 45 minutes. Animals are dosed with compound one hour before carrageenan challenge. Foot paw edema is induced by injecting 0.10 ml of the 1% carrageenan subcutaneously into the plantar portion of the right hind paw of each rat under light anesthesia. Initial foot paw volume is measured immediately following carrageenan challenge using mercury plethysmography (Buxco Electronics). Edema is measured five hours after carrageenan. The difference between the five-hour and the initial paw volume is expressed as delta edema. The delta edema for each test group of animals is used to calculate the percent inhibition of edema achieved by the compound at the test dose compared with the vehicle control group. The ID40 (the dose at which swelling is inhibited by 40%) is calculated by probit analysis for the dose at which 40 percent inhibition occurs.
Table 1 also contains biochemical data for compounds of formula I obtained from the CFE and MFE assays.

Assay [2] has as its system Mycobacterium-Induced Rat Footpad Edema. As to the kind of experiment: Mycobacterium-Induced Rat Footpad Edema Assay (MFE). The class given is in vivo. Particulars: at 10 m/k, dosed one hour before Mycobacterium and Days 1 and 2, 72 hours. As to the method:
Mycobacterium - Induced Rat Footpad Edema Assay (MFE): Protocol Mycobacterium butyricum (5 mg/ml) is suspended in paraffin oil by sonication for ten minutes in an ice bath. Footpad edema is induced on Day 0 by injecting 0.1 ml of the Mycobacterium mixture into the left hindpaw of lightly anesthetized rats. Swelling in the injected hindpaw is determined by mercury plethysmography 72 hours after injection. Groups of rats are treated with test compounds (suspended in 0.5% hydroxypropyl methylcellulose with 0.2% Tween-80) or vehicle one hour before Mycobacterium injection and on Days 1 and 2. Inhibition of swelling is determined by comparing the change in hindpaw volume in compound- and vehicle-treated rats. An ID40 (the dose at which swelling is inhibited by 40%) is calculated by probit analysis. Table 1 also contains biochemical data for compounds of formula I obtained from the CFE and MFE assays.

Where [3] appears, read: read-out: ARBC, inhibition of PGF2α (class symbol N).
[4] abbreviates: read-out: ARBC, inhibition of PGF2α.

SMILES strings stand for the structures. Where two headings read alike, the source gives them in different places. Some results are limits rather than exact numbers.

As for `CCOC(=O)c1ccc2c(c1)/C(=C/c1cc(C(C)(C)C)c(O)c(C(C)(C)C)c1)C(=O)N2` [Example 6, 3-[[3,5-bis(1,1-dimethylethyl)-4-hydroxyphenyl]-methylene]-2,3-dihydro-2-oxo-1H-indole-5-carboxylic acid, ethyl ester (Z)-], the inhibition at 10 µM at 5-lipoxygenase was 100%; at cyclooxygenase (setting [3]), under 40%.
In the same order, the values of `CC(C)(C)c1cc(/C=C2\C(=O)Nc3ccc(C(=O)O)cc32)cc(C(C)(C)C)c1O` [Example 12, 3-[[3,5-bis(1,1-dimethylethyl)-4-hydroxyphehyl]methylene]-2,3-dihydro-2-oxo-1H-indole-5-carboxylic acid, (Z)-] are 100% and under 40%.
Taken in the same sequence, the figures for `Cc1cccc2c1NC(=O)/C2=C\c1cc(C(C)(C)C)c(O)c(C(C)(C)C)c1` [Example 7] were 100% and under 40%.
Take `COc1cccc2c1NC(=O)/C2=C\c1cc(C(C)(C)C)c(O)c(C(C)(C)C)c1` [Example 5, 3-[[3,5-bis(1,1-dimethylethyl)-4-hydroxyphenyl]-methylene]-1,3-dihydro-7-methoxy-2H-indol-2-one, (Z)-]: the results for the IC50 at 5-lipoxygenase and at cyclooxygenase were 430 nM and 6070 nM, respectively. In assay [1], the “CFE, inhibition of edema” value is 43%. Moreover, the “MFE, inhibition of swelling” value in assay [2] stood at 33%.
For the compound `Cc1cccc2c1/C(=C/c1cc(C(C)(C)C)c(O)c(C(C)(C)C)c1)C(=O)N2` [Example 10, 3-[[3,5-bis(1,1-dimethylethyl)-4-hydroxyphenyl]methylene]-1,3-dihydro-4-methyl-2H-indole-2-one, (Z)-], the inhibition at 10 µM at 5-lipoxygenase is 100%; on cyclooxygenase (setting [3]), under 40%.
Consider `CC(C)(C)c1cc(/C=C2\C(=O)Nc3ccccc32)cc(C(C)(C)C)c1O` [Example 1, 3-[[3,5-bis(1,1-dimethylethyl)-4-hydroxyphenyl]methylene]1,3,-dihydro-2H-indole-2-one, (Z)-], for which the figures for the IC50 on 5-lipoxygenase and on cyclooxygenase were 930 nM and 1500 nM, respectively. Moreover, in assay [2], the “MFE, inhibition of swelling” value is reported as 42%.
For `COc1ccc2c(c1)/C(=C/c1cc(C(C)(C)C)c(O)c(C(C)(C)C)c1)C(=O)N2C` [Example 8, 3-[[3,5-bis(1,1-dimethylethyl)-4-hydroxyphenyl]methylene]-1,3-dihydro-5-methoxy-1-methyl-2H-indole-2-one, (Z)-], the inhibition at 10 µM is 100% on 5-lipoxygenase and under 40% on cyclooxygenase (setting [3]).
With `CC(C)(C)c1cc(/C=C2\C(=O)N(C(N)=O)c3ccccc32)cc(C(C)(C)C)c1O` [Example 3], the inhibition at 10 µM is 100% at 5-lipoxygenase and 32% on cyclooxygenase (setting [4]).
Taken in the same sequence, the figures for `CN1C(=O)/C(=C\c2cc(C(C)(C)C)c(O)c(C(C)(C)C)c2)c2ccccc21` [Example 4] were 100% and 30%.
With `CC(C)(C)c1cc(/C=C2\C(=O)Nc3cccc(Cl)c32)cc(C(C)(C)C)c1O` [Example 9, 3-[[3,5-bis(1,1-dimethylethyl)-4-hydroxyphenyl]methylene]-4-chloro-1,3-dihydro-2H-indole-2-one, (Z)-], the inhibition at 10 µM on 5-lipoxygenase was 48%; at cyclooxygenase (setting [3]), under 40%.
Taken in the same sequence, the figures for `Cc1ccc2c(c1)/C(=C/c1cc(C(C)(C)C)c(O)c(C(C)(C)C)c1)C(=O)N2` [Example 2, 3-[[3,5-Bis(1,1-dimethylethyl)-4-hydroxyphenyl]-methylene]-1,3-dihydro-5-methyl-2H-indole-2-one, (Z)] were 100% and under 40%.
